According to ChEMBL document CHEMBL5108062 (J Med Chem, 2022):

Target: Dipeptidyl peptidase 4 (Homo sapiens, UniProt P27487)
Experiment: Inhibition of human recombinant DPP4 using H-Gly-Pro-AMC as substrate incubated for 30 mins by fluorescence based microplate reader assay

Sequence of Dipeptidyl peptidase 4 (P27487 whole entry): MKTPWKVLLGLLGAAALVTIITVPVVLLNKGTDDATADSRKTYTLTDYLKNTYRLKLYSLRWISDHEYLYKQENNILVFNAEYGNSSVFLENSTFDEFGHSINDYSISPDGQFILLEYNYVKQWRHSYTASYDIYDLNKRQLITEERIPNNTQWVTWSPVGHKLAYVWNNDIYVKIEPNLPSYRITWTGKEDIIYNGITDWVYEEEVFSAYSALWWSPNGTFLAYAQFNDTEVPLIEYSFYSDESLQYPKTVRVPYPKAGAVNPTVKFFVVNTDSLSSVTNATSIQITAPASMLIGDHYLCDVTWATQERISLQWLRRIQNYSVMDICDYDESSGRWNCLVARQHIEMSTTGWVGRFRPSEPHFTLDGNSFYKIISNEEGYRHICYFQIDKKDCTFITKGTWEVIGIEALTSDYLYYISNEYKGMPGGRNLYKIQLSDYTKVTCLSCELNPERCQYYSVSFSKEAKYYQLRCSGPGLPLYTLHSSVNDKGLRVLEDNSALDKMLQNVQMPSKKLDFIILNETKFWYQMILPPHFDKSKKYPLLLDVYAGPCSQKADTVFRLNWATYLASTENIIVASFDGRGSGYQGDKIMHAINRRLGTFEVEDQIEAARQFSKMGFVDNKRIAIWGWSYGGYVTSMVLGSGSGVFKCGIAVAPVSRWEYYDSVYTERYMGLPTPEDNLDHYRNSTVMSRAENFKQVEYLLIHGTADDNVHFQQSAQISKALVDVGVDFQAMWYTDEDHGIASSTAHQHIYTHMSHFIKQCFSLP

**Q.** Which IC50 does the source give for COc1cc(S(N)(=O)=O)ccc1OCCC(N=[N+]=[N-])C1COc2ccccc2O1 (stereo unspecified) here?
**A.** The IC50 was 327 µM.
